Source: ChEMBL document CHEMBL1201862, “PubChem BioAssay data set” (2004)
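These data come from cells grown in 96-well plates and exposed to compound for 48 hours at five concentrations. Here, GI50 denotes the concentration required for 50% inhibition of growth.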 The source made the active and inactive calls. No stated cut-off is given here; in the data, active = GI50 up to about 1.1 µM and inactive = higher.

Legend:
Assay in all cases: NCI anticancer screen, dose series, 48 h
RXF 631 = test system: RXF 631
M19-MEL = test system: M19-MEL
DMS-273 = test system: DMS-273
HOP-18 = test system: HOP-18
SNB-78 = test system: SNB-78
DMS-114 = test system: DMS-114
DLD-1 = test system: DLD-1
LXFL 529 = test system: LXFL 529
XF498 = test system: XF498

## CN[C@@H](C)[C@H](NC)c1ccccc1
RXF 631
  GI50: > 100 µM (inactive)
M19-MEL
  GI50: > 100 µM (inactive)
DMS-273
  GI50: > 100 µM (inactive)
HOP-18
  GI50: > 100 µM (inactive)
SNB-78
  GI50: > 100 µM (inactive)
DMS-114
  GI50: > 100 µM (inactive)
DLD-1
  GI50: > 100 µM (inactive)
LXFL 529
  GI50: > 100 µM (inactive)

## CC12CCC3(C1)[C@H](CC2=O)C[C@@H](OC(=O)c1ccccc1)C1C(C)(CO)CCC[C@@]13C (stereo partly specified)
M19-MEL
  GI50: 3.4 µM (inactive)
DMS-273
  GI50: 0.625 µM (active)
HOP-18
  GI50: 26.7 µM (inactive)
SNB-78
  GI50: 34 µM (inactive)
DMS-114
  GI50: 0.156 µM (active)
DLD-1
  GI50: 2.48 µM (inactive)
LXFL 529
  GI50: 0.6 µM (active)

## COc1cccc2c1C(=O)c1c(O)c3c(c(O)c1C2=O)C[C@@](O)(C(C)=O)C[C@@H]3OC1CC(N(C)C)C(O)C(C)O1 (stereo partly specified)
M19-MEL
  GI50: 0.0213 µM (active)
XF498
  GI50: 0.0001 µM (active)
DMS-273
  GI50: 0.00964 µM (active)
HOP-18
  GI50: 0.0859 µM (active)
SNB-78
  GI50: 0.00873 µM (active)
DMS-114
  GI50: 0.0475 µM (active)
DLD-1
  GI50: 0.0153 µM (active)
LXFL 529
  GI50: 0.00684 µM (active)

## COC(=O)C(C(=O)C(=O)Nc1c(C)cccc1C)c1cnc2ccccc2n1 (stereo unspecified)
RXF 631
  GI50: > 100 µM (inactive)
XF498
  GI50: > 100 µM (inactive)
DMS-273
  GI50: > 100 µM (inactive)
HOP-18
  GI50: > 100 µM (inactive)
SNB-78
  GI50: > 100 µM (inactive)
DMS-114
  GI50: > 100 µM (inactive)
LXFL 529
  GI50: > 100 µM (inactive)

## CCN(CC)CCSc1c2ccccc2nc2cc(NCC(=O)Nc3ccccc3-c3ccccc3NC(=O)CNc3ccc4c(SCCN(CC)CC)c5ccccc5nc4c3)ccc12
RXF 631
  GI50: > 100 µM (inactive)
M19-MEL
  GI50: 23 µM (inactive)
XF498
  GI50: > 100 µM (inactive)
DMS-273
  GI50: > 34.7 µM (inactive)
HOP-18
  GI50: > 100 µM (inactive)
DLD-1
  GI50: > 100 µM (inactive)
LXFL 529
  GI50: > 91 µM (inactive)

## Nc1ccc2c(c1)CN1C(=O)c3ccccc3C1=N2 [DANIQUIDONE]
M19-MEL
  GI50: > 116 µM (inactive)
DMS-273
  GI50: 32.4 µM (inactive)
HOP-18
  GI50: 108 µM (inactive)
SNB-78
  GI50: 25 µM (inactive)
DMS-114
  GI50: 70.5 µM (inactive)
DLD-1
  GI50: 51.1 µM (inactive)
LXFL 529
  GI50: 82.8 µM (inactive)

## C1=C2/CC[C@H](Sc3ccccc3)C2C2(CCCCC/1)OCCO2 (stereo partly specified)
M19-MEL
  GI50: 15.6 µM (inactive)
XF498
  GI50: 22.7 µM (inactive)
DMS-273
  GI50: 25.4 µM (inactive)
HOP-18
  GI50: 29.9 µM (inactive)
SNB-78
  GI50: 39.4 µM (inactive)
DLD-1
  GI50: 33 µM (inactive)

## O=c1c2ccccc2sc2nc(CCl)nn12
M19-MEL
  GI50: 19.7 µM (inactive)
DMS-273
  GI50: 8.18 µM (inactive)
SNB-78
  GI50: > 68.4 µM (inactive)
DMS-114
  GI50: 17.6 µM (inactive)
DLD-1
  GI50: 6.81 µM (inactive)
LXFL 529
  GI50: 19.5 µM (inactive)

## COC(=O)/C(=N\NC(=O)C[N+](C)(C)C)C(C(=O)OC)C(=O)C(=O)Nc1ccccc1C(N)=O (stereo unspecified)
M19-MEL
  GI50: > 100 µM (inactive)
DMS-273
  GI50: > 100 µM (inactive)
HOP-18
  GI50: > 100 µM (inactive)
SNB-78
  GI50: > 100 µM (inactive)
DLD-1
  GI50: > 100 µM (inactive)
LXFL 529
  GI50: > 100 µM (inactive)

## CCCCCCCCCCCCCCCCCC(=O)Nc1ccn(C2OC(CO)C(O)C2O)c(=O)n1 (stereo unspecified)
M19-MEL
  GI50: 5.69 µM (inactive)
DMS-273
  GI50: 14.3 µM (inactive)
HOP-18
  GI50: > 100 µM (inactive)
SNB-78
  GI50: > 100 µM (inactive)
DLD-1
  GI50: > 100 µM (inactive)
LXFL 529
  GI50: > 100 µM (inactive)

## Cc1cccc(C(C)(C)C)c1NC(=O)C(=O)C(C(=O)/C=C\c1ccccc1)C1OC(=O)c2ccccc21 (stereo unspecified)
RXF 631
  GI50: > 100 µM (inactive)
M19-MEL
  GI50: > 100 µM (inactive)
XF498
  GI50: > 100 µM (inactive)
HOP-18
  GI50: > 100 µM (inactive)
SNB-78
  GI50: > 100 µM (inactive)
DMS-114
  GI50: > 100 µM (inactive)
DLD-1
  GI50: > 100 µM (inactive)
LXFL 529
  GI50: > 100 µM (inactive)

## O=c1[nH]c(=O)n(C2CC(O)C(O)C(CO)O2)cc1F (stereo unspecified)
RXF 631
  GI50: > 100 µM (inactive)
M19-MEL
  GI50: > 100 µM (inactive)
XF498
  GI50: > 100 µM (inactive)
HOP-18
  GI50: > 100 µM (inactive)
SNB-78
  GI50: > 100 µM (inactive)
DMS-114
  GI50: > 100 µM (inactive)
DLD-1
  GI50: > 100 µM (inactive)
LXFL 529
  GI50: > 100 µM (inactive)

## CCCCCCCCCCCC(=O)OCC1OC(n2cc(F)c(=O)[nH]c2=O)C(NC(=O)OCc2ccccc2)C(OC(=O)CCCCCCCCCCC)C1O (stereo unspecified)
RXF 631
  GI50: > 100 µM (inactive)
M19-MEL
  GI50: > 100 µM (inactive)
XF498
  GI50: > 100 µM (inactive)
DMS-273
  GI50: > 100 µM (inactive)
HOP-18
  GI50: > 100 µM (inactive)
SNB-78
  GI50: > 100 µM (inactive)
DMS-114
  GI50: > 100 µM (inactive)
DLD-1
  GI50: > 100 µM (inactive)
LXFL 529
  GI50: > 100 µM (inactive)

## O=C(O)c1ccccc1NC(=O)C1CCCCC1
RXF 631
  GI50: > 100 µM (inactive)
M19-MEL
  GI50: > 100 µM (inactive)
XF498
  GI50: > 100 µM (inactive)
DMS-273
  GI50: > 100 µM (inactive)
SNB-78
  GI50: > 100 µM (inactive)
DMS-114
  GI50: > 100 µM (inactive)
DLD-1
  GI50: > 100 µM (inactive)
LXFL 529
  GI50: > 100 µM (inactive)

## COc1ccc2cc(C(=O)c3ccccc3C(=O)O)ccc2c1
M19-MEL
  GI50: > 100 µM (inactive)
DMS-273
  GI50: > 100 µM (inactive)
HOP-18
  GI50: > 100 µM (inactive)
DMS-114
  GI50: > 100 µM (inactive)
DLD-1
  GI50: > 100 µM (inactive)
LXFL 529
  GI50: > 100 µM (inactive)

## CC(=O)NC1C(=O)CC(c2ccccc2)N(C)C1c1ccccc1 (stereo unspecified)
RXF 631
  GI50: > 100 µM (inactive)
M19-MEL
  GI50: > 100 µM (inactive)
DMS-273
  GI50: > 100 µM (inactive)
SNB-78
  GI50: > 100 µM (inactive)
DMS-114
  GI50: > 100 µM (inactive)
DLD-1
  GI50: > 100 µM (inactive)
LXFL 529
  GI50: > 100 µM (inactive)

## CCc1cccc(C)c1NC(=O)CC(=O)NNC(N)=S
XF498
  GI50: > 100 µM (inactive)
DMS-273
  GI50: > 100 µM (inactive)
HOP-18
  GI50: > 100 µM (inactive)
SNB-78
  GI50: > 100 µM (inactive)
DMS-114
  GI50: > 100 µM (inactive)
DLD-1
  GI50: > 100 µM (inactive)
LXFL 529
  GI50: > 100 µM (inactive)
